{"source": "patent US20200275650A1", "about": "“NOVEL POLYMER COATED CHLO[…]” (priority 2017, published 2020)", "origin": "cited, not measured here", "conditions": "technical chlorothalonil; well documented", "data": [{"smiles": "N#Cc1c(Cl)c(Cl)c(Cl)c(C#N)c1Cl", "note": "[technical chlorothalonil, chlorothalonil]", "values": [{"measurement": "Median Lethal Concentration (acute inhalation toxicity)", "result": 0.1, "unit": "mg/L"}]}]}
